Reference: patent US20250034196A1, “ESTER DERIVATIVES OF N4-HYDROXYCYTIDINE AND USE THEREOF” (priority 2021, published 2025)

What was measured:
in vivo = test: in vivo; parameters: species or system Beagle Dogs; conditions: dog, po, 10 mg/kg; for AUC(0-inf): AUCINF of EX-1/NHC/CH2018; for AUC(0-t): AUClast of EX-1/NHC/CH2018; for Cmax: Cmax of EX-1/NHC/CH2018; for half-life: T1/2 of EX-1/NHC/CH2018; for Tmax: Tmax of EX-1/NHC/CH2018
Protocol: Example 174: Pharmacokinetic Study of EX-2 (CH2101), Molnupiravir (CH2017) and its Metabolite NHC (CH2018) Following a Single PO Administration of EX-2 (CH2101) or Molnupiravir (CH2017) in Male and Female Beagle Dogs
Both test compounds were prepared in 1% methyl cellulose (400 cps, SIGMA, SLCF9694) solution in purified water.
A total of 6 male+6 female Beagle Dogs, approximately 7-13 kg of bodyweight, were originally purchased from Marshall Biotechnology Co., Ltd. The animals were fasted overnight prior to dosing and food was re-provided after 4 hours post dosing.
The animals were restrained manually, and approximately 1 mL of blood at each time point was collected into pre-cooled EDTA-K2 tubes via cephalic or saphenous veins. Blood samples were centrifuged at 4° C. (4000 rpm. 5 min) to obtain plasma within 30 min after sample collection. All samples were stored at approximately −80° C. until analysis. The backup samples will be discarded after the in vivo experiment has been completed for two months unless requested.

in vitro [1] = assay type: in vitro ADME; conditions: microsomes; for half-life at 1 µM: pH 7.4
Protocol: (§1) Preparation of Solutions: Stock solution (10 mM) of each of test compounds was prepared in DMSO. The stock solution for each compound was then diluted into 100 μM with acetonitrile.
(§2) Microsome Incubations: Incubation mixtures were prepared in a total volume of 200 μL with final component concentrations as follows: 0.1M PBS (pH 7.4), NADPH (2 mM) and liver microsomes (0.2 mg/mL) as well as test compound (1 μM) or Molnupiravir (1 μM) as a positive control, wherein the NADPH was added after a 5-min preincubation of all other components at 37° C. Pipette-mixed to achieve a homogenous suspension and immediately transferred 20 μL incubate as a 0 min sample to wells in a “Quenching” plate followed by adding 200 μL of acetonitrile with metolazone as IS and pipette-mixing. At 2, 5, 10, and 45 min, pipette-mixed the incubate and serially transfer samples of 20 μL incubate per time point to wells in a separate “Quenching” plate followed by adding 200 μL of acetonitrile with metolazone as IS and pipette-mixing.
(§3) Sample Analysis: The 96-well plate was centrifuged at 6000 g for 10 min. The supernatant was injected onto the LC-MS/MS system for analysis.

Microsome stability = assay type: in vitro ADME, Monkey; conditions: monkey, microsomes, pH 7.4
Protocol: as §1, §2, §3

in vitro [2] = assay type: in vitro ADME; conditions: plasma
Protocol: as §1
Plasma Incubations: Plasma incubations were conducted in duplicate in 96-well plate at 37° C. Plasma was prewarmed in a total volume of 198 μL for 5 min at 37° C., then added 2 μL of 100 μM test compound into an incubation well containing plasma, pipette-mixed to achieve a homogenous suspension and immediately transferred 20 μL incubate as a 0 min sample to wells in a “Quenching” plate followed by adding 200 μL of acetonitrile with metolazone as internal standard (IS) and pipette-mixing. At 2, 5, 60, and 90 min, pipette-mixed the incubate and serially transfer samples of 20 μL incubate per time point to wells in a separate “Quenching” plate followed by adding 200 μL of acetonitrile with metolazone as IS and pipette-mixing.
as §3

[3] = tested on: SARS-CoV-2, Hongkong strain; assay type: in vivo, K18 hACE2 transgenic mice
[4] = Remdesivir 25 mpk SC twice daily

`O=c1nc(NO)ccn1[C@@H]1O[C@H](CO)[C@@H](O)[C@H]1O` [EX-1/NHC/CH2018, NHC] gave an AUC(0-inf) (in vivo; both sexes, beagle) of 9680 ng·h/mL, an AUC(0-t) (in vivo; both sexes, beagle) of 9580 ng·h/mL and a Cmax (in vivo; both sexes, beagle) of 4780 ng/mL. The half-life (in vivo; both sexes, beagle) was 227 min, the Tmax (in vivo; both sexes, beagle) was 52.5 min and the “AUCmale/female of EX-1/NHC/CH2018” value (in vivo; both, Beagle) was 158%. The “AUCINF of EX-1/NHC/CH2018” value (in vivo; female, beagle) was 7683 ng·h/mL, the “AUClast of EX-1/NHC/CH2018” value (in vivo; female, beagle) was 7632 ng·h/mL and the “Cmax of EX-1/NHC/CH2018” value (in vivo; female, beagle) was 3940 ng/mL. The “T1/2 of EX-1/NHC/CH2018” value (in vivo; female, beagle) was 63.6 min, the AUC(0-inf) (in vivo; female, beagle) was 7310 ng·h/mL and the AUC(0-t) (in vivo; female, beagle) was 7220 ng·h/mL. For the same compound, the Cmax (in vivo; female, beagle) was 4550 ng/mL, the half-life (in vivo; female, beagle) was 76.8 min and the Tmax (in vivo; female, beagle) was 60 min. For the same compound, the “AUCINF of EX-1/NHC/CH2018” value (in vivo; male, beagle) was 11046 ng·h/mL, the “AUClast of EX-1/NHC/CH2018” value (in vivo; male, beagle) was 10957 ng·h/mL and the “Cmax of EX-1/NHC/CH2018” value (in vivo; male, beagle) was 5240 ng/mL. The “T1/2 of EX-1/NHC/CH2018” value (in vivo; male, beagle) was 343 min, the “Tmax of EX-1/NHC/CH2018” value (in vivo; male, beagle) was 30 min and the AUC(0-inf) (in vivo; male, beagle) was 12700 ng·h/mL. The AUC(0-t) (in vivo; male, beagle) was 12500 ng·h/mL, the Cmax (in vivo; male, beagle) was 5380 ng/mL and the half-life (in vivo; male, beagle) was 425 min. It also gave a Tmax (in vivo; male, beagle) of 60 min.
In the case of `CC(C)C(=O)ONc1ccn([C@@H]2O[C@H](CO)[C@@H](O)[C@H]2O)c(=O)n1` [EX-3], the half-life at 1 µM (in vitro [1]; dog) is reported as 33.8 min, the half-life at 1 µM (in vitro [1]; human) is reported as 13.5 min and the half-life at 1 µM (in vitro [1]; mouse) is reported as 6.8 min. The half-life at 1 µM (in vitro [1]; rat) was 46.6 min, the half-life at 1 µM (Microsome stability) was 4.4 min and the half-life at 1 µM (in vitro [2]; dog) was 21.2 min. For the same compound, the half-life at 1 µM (in vitro [2]; human) was 2.8 min, the half-life at 1 µM (in vitro [2]; monkey) was 3.2 min and the half-life at 1 µM (in vitro [2]; mouse) was 0.6 min. The half-life at 1 µM (in vitro [2]; rat) was 25.9 min.
In the case of `O=C(ONc1ccn([C@@H]2O[C@H](CO)[C@@H](O)[C@H]2O)c(=O)n1)C1CC1` [EX-15], the half-life at 1 µM (in vitro [1]; dog) is reported as 132 min, the half-life at 1 µM (in vitro [1]; human) is reported as 67.3 min and the half-life at 1 µM (in vitro [1]; mouse) is reported as 15.4 min. The T1/2 (in vitro [1]; rat) was “∞”, the half-life at 1 µM (Microsome stability) was 25 min and the half-life at 1 µM (in vitro [2]; dog) was 109 min. The half-life at 1 µM (in vitro [2]; human) was 5.8 min, the half-life at 1 µM (in vitro [2]; monkey) was 16.5 min and the half-life at 1 µM (in vitro [2]; mouse) was 5.2 min. The half-life at 1 µM (in vitro [2]; rat) was 88.9 min.
In the case of `COC(C)(C)C(=O)ONc1ccn([C@@H]2O[C@H](CO)[C@@H](O)[C@H]2O)c(=O)n1` [EX-53], the half-life at 1 µM (in vitro [1]; dog) is reported as 87.5 min, the half-life at 1 µM (in vitro [1]; human) is reported as 86.6 min and the half-life at 1 µM (in vitro [1]; mouse) is reported as 17.1 min. It also gave a half-life at 1 µM (in vitro [1]; rat) of 70.5 min, a half-life at 1 µM (Microsome stability) of 7.3 min and a half-life at 1 µM (in vitro [2]; dog) of 156 min. The half-life at 1 µM (in vitro [2]; human) was 4.8 min, the half-life at 1 µM (in vitro [2]; monkey) was 9.8 min and the half-life at 1 µM (in vitro [2]; mouse) was 3.1 min. For the same compound, the half-life at 1 µM (in vitro [2]; rat) was 94.3 min.
With `CCC(CC)COC(=O)[C@H](C)N[P@](=O)(OC[C@H]1O[C@@](C#N)(c2ccc3c(N)ncnn23)[C@H](O)[C@@H]1O)Oc1ccccc1` [Remdesivir] the Survival proportions ([3]; 14-day study, twice daily days 0-6, CH2101 450 mg/kg PO, Remdesivir 25 mg/kg SC) was 0%, the “Body weight loss observed from day” value [3, 4] was 2 days and the “Gross clinical symptoms appear from day” value [3, 4] was 6 days. For the same compound, the “Max clinical symptom score (mean value)” value [3, 4] was 2, the Prolonged survival time ([3]; compared with vehicle group (group 1), Remdesivir 25 mg/kg SC) was 20% and the “Virus titer in lung, comparison with Remdesivir group (mean difference)” value ([3]; day 5) was 2.47. For the same compound, the “Virus titer in lung” value ([3]; day 5, plaque assay, mean, twice daily days 0-4, CH2101 450 mpk PO, Remdesivir 25 mpk SC) was 5.11 Log 10 plaque#/g lung, the “Virus titer in lung, mean difference vs. group 1 (Vehicle group)” value ([3]; day 5, CH2101 450 mpk PO, Remdesivir 25 mpk SC) was 0.83 Log and the Body weight change ([3]; day 6, normalized to day 0, Remdesivir 25 mpk SC twice daily) was −13.6%. The Median survival time ([3]; twice daily days 0-6, CH2101 450 mg/kg PO, Remdesivir 25 mg/kg SC) was 6 days.
